Experimental data published in patent publication US6362207B1, “Methods of treating viral infections with benzimidazoles” (priority 1995, dated 2002).
Like-named read-outs stand apart in the source and are kept apart here.

Tests used:
[1] = test system: HIV-1 in ACH-2 cells (T cell line A3.01); assay: Additional chronic HIV studies, T cells; assay type: cell-based; details: concentration not given
Procedure: (§1) Chronic HIV-1 infected cells U1 were derived from an acute HIV-1 infection of the promonocytic cell line, U937. The chronic HIV-1 infected cells, ACH-2 were derived from an acute HIV-1 infection of the T cell line, A3.01.
(§2) These cells were cultured in medium and the phorbol ester, PMA. PMA causes the cells (both U1 and ACH-2) to be activated and not divide but it also causes the U-1 cells to differentiate. […] Cell viability was measured when these cell lines were treated with the test compound.
(§3) Both cell lines constituitively produce a small amount of HIV-1. ACH-2 cell lines tend to produce more HIV-1 than U1 cells as shown by p24 ELISA. When either cell line is cultured in the presence of PMA there is an increase in the quantity of HIV-1 produced as measured by the p24 antigen ELISA.
(§4) In addition, the number of […] positive HIV mRNA expressing cells per microscopic field is measured. Comparisons can be made from these numbers since the same number of cells were adhered to the glass slides for each drug concentration 10×10^6 cells/ml).
(§5) These cells were treated with test samples. […] The positive control was interferon which suppressed HIV monocytes replication by 80%.

B-16 mouse melanoma = details: for Increased Life Span: B16 melanoma
Procedure: The data in Tables 1, 2 and 3 are reported in T/C which is interpreted using the following scale:
long term survivors for P388 is >30 days, for B16 it is >60 days. The NCI Measure of Success is T/C=125.
This study was performed in black mice injected i.p. with B-16 mouse melanoma which many researchers believe is the most predictive model for efficacy in humans. […] Death is the end point in this model.

MV522 = assay: Lung cancer model MV522 after Taxol, tumor weight; assay type: in vivo, mice
Procedure: (§6) The dose response effect of carbendazim in mice infected with various cancer types was studied in standard screening tests.
(§7) The results of these studies conducted to study the dosage response of carbendazim on various cancer types are summarized below. […] Efficacy of carbendazim has been shown in the following cancers:
At doses of 2000, 3000, 4000 and 5000 (mg/kg given twice weekly, p.o.) tumor growth was suppressed in a dose response and the tumor was shrunk in the 5000 mg/kg group. Day 1 is the start of the treatment with carbendazim.

[2] = test system: MCF7 (breast cancer) cells; assay: Apoptosis study (TdT assay) and cell growth; assay type: cell-based, human
Procedure: Summary of test results: The extent of apoptosis is measured in human tumor cell lines after treatment for 1, 2, 3 and 4 days with carbendazim. At each of these time points, the cells are harvested and assayed using the terminal deoxynucleotidyl transferase (TdT) assays. Both microscopy and flow cytometry were used for the TdT assay.
In MCF7, HT29, B16 and SK-MES cell lines, there was a concentration dependent effect on cell growth. […] After completion of the studies on the MCF7 and HT29 cell lines, it was evident that the 0.1 μg/ml concentration had little effect on either apoptosis or cell growth. Therefore subsequent assays were with 5 μg/ml instead of 0.1 μg/ml.
However, at 10 μg/ml the increase in apoptosis was evident at days 3 and 4. The increase in apoptosis was low, less than 10% at the high concentration.

Oral LD50 = details: mouse, in vivo, mice
rhinovirus = assay: In vitro rhinovirus model; assay type: cell-based
herpes = assay: In vivo herpes screening test; design: species or system mice; details: mouse, in vivo
Procedure: The positive control was acyclovir at 75 mg/kg dose; 60% of the mice survived with a mean death date of 17.2 days.

lung = assay type: in vivo; details: A549-lung, 500 mg/kg
P388 = assay: P-388 model for leukemia, T/C; assay type: in vivo, mice
Excerpt: In the P-388 model for leukemia there was a dose responsive effect and the results were good.
The NCI Measure of Success is T/C=125.

Rhabdomysarcoma = Rhabdomysarcoma model, tumor weight; assay type: in vivo; details: 3000 (mg/kg) group, once weekly p.o.
Excerpt: as §6, §7
In the Rhabdomysarcoma model, a childhood cancer, at day 29 carbendazim at doses of 3000, 4000 and 5000 (mg/kg given once weekly, p.o.) is quite effective against this tumor with no toxicity in the 3000 (mg/kg) group. Topotecan (i.p., qd×5) is quite active against this model.

colon = assay: Tumor growth reduction in mice models (Tables 5 and 6), colon; assay type: in vivo; details: HT29-colon, 2500 mg/kg
[3] = test system: HIV-1 in U1 cells (promonocytic, from U937); assay: Additional chronic HIV studies, monocytes; assay type: cell-based; details: concentration not given
Procedure: as §1, §2, §3, §4, §5

With `COC(=O)Nc1nc2ccccc2[nH]1` [carbendazim, 2-methoxycarbonylamino-benzimidazole] the “increase of T-cell HIV replication” value [1] was 44%, the T/C (B-16 mouse melanoma; 500 mg/kg twice weekly) was 141 and the “weight change (%)” value (B-16 mouse melanoma; 500 mg/kg twice weekly) was −0.64%. For the same molecule, the T/C (B-16 mouse melanoma; 1000 mg/kg twice weekly) was 176, the “weight change (%)” value (B-16 mouse melanoma; 1000 mg/kg twice weekly) was −4.75% and the T/C (B-16 mouse melanoma; 1250 mg/kg twice weekly) was 124. The “weight change (%)” value (B-16 mouse melanoma; 1250 mg/kg twice weekly) was “+1.99%”, the T/C (B-16 mouse melanoma; 2000 mg/kg twice weekly) was 169 and the “weight change (%)” value (B-16 mouse melanoma; 2000 mg/kg twice weekly) was −11.63%. For the same molecule, the T/C (B-16 mouse melanoma; 2500 mg/kg twice weekly) was 169, the “weight change (%)” value (B-16 mouse melanoma; 2500 mg/kg twice weekly) was “+3.16%” and the T/C (B-16 mouse melanoma; 5000 mg/kg twice weekly) was 198. For the same molecule, the “weight change (%)” value (B-16 mouse melanoma; 5000 mg/kg twice weekly) was −0.64%, the “Increased Life Span” value (B-16 mouse melanoma; 1000 mg/kg) was 131% and the “Increased Life Span” value (B-16 mouse melanoma; 2000 mg/kg) was 163%. The “Increased Life Span” value (B-16 mouse melanoma; 4000 mg/kg) was 187%, the tumor weight (MV522; 2000 mg/kg twice weekly p.o., c1-c3 = day 59, 63, 66, 2000 mg/kg, day 59) was 214.9 mg and the tumor weight (MV522; 2000 mg/kg twice weekly p.o., c1-c3 = day 59, 63, 66, 2000 mg/kg, day 63) was 193.7 mg. The tumor weight (MV522; 2000 mg/kg twice weekly p.o., c1-c3 = day 59, 63, 66, 2000 mg/kg, day 66) was 188.9 mg, the tumor weight (MV522; 3000 mg/kg twice weekly p.o., c1-c3 = day 59, 63, 66, 3000 mg/kg, day 59) was 75.4 mg and the tumor weight (MV522; 3000 mg/kg twice weekly p.o., c1-c3 = day 59, 63, 66, 3000 mg/kg, day 63) was 77 mg. The tumor weight (MV522; 3000 mg/kg twice weekly p.o., c1-c3 = day 59, 63, 66, 3000 mg/kg, day 66) was 94.5 mg, the increase in apoptosis ([2]; 10 μg/ml (high concentration), days 3 and 4) was “below 10%” and the cell growth ([2]; below 10 μg/ml) was “not significantly affected”. For the same molecule, the LD50 (Oral LD50) was 11000 mg/kg, the “therapeutic index (TI), ratio of toxic dose to efficacious dose” value (rhinovirus) was 1-3 and the activity (herpes) was “no activity”. For the same molecule, the “Tumor Growth Decrease (%)” value (lung) was 57%, the T/C (P388; 500 mg/kg twice weekly) was 141 and the “weight change (%)” value (P388; 500 mg/kg twice weekly) was −0.64%. The T/C (P388; 1000 mg/kg twice weekly) was 176, the “weight change (%)” value (P388; 1000 mg/kg twice weekly) was −4.75% and the T/C (P388; 1250 mg/kg twice weekly) was 124. The “weight change (%)” value (P388; 1250 mg/kg twice weekly) was “+1.99%”, the T/C (P388; 2000 mg/kg twice weekly) was 169 and the “weight change (%)” value (P388; 2000 mg/kg twice weekly) was −11.63%. The T/C (P388; 2500 mg/kg twice weekly) was 169, the “weight change (%)” value (P388; 2500 mg/kg twice weekly) was “+3.16%” and the T/C (P388; 5000 mg/kg twice weekly) was 198. For the same molecule, the “weight change (%)” value (P388; 5000 mg/kg twice weekly) was −0.64%, the “Increased Life Span” value (P388; P388-luekemia, 1000 mg/kg) was 129% and the “Increased Life Span” value (P388; P388-luekemia, 2000 mg/kg) was 148%. For the same molecule, the decreased life span (P388; P388-luekemia, 4000 mg/kg, printed in column Increased Life Span) was 9%, the toxicity (Rhabdomysarcoma) was “no toxicity” and the “Tumor Growth Decrease (%)” value (colon) was 54%. For the same molecule, the “suppression of replication in the HIV monocytes” value [3] was 9%.
